In patent EP4722228A1, “NEW COMPOUND TARGETING MUSK AND USE THEREOF” (The University of Tokyo, priority 2023, dated 2024):
Numbered stars: 1 amine (or outer) side, 2 acyl side, 3 side chain; on linkers, the order of the positions; unused ones are H or OH. Bridge positions count the residues as written; N and C are the ends. Square brackets hold non-standard residues; d marks the D form. Peptide text beside a SMILES is read from it. I, II: the chains in the order shown. X1 = O=C(CCN1C(=O)CC([*:1])C1=O)NCCOCCOCCOCCOCCOCCOCCOCCOCCOCCOCCOCCNC(=O)CCN1C(=O)CC([*:2])C1=O

Key:
[1] = system: C2C12 myotubes (AChR clusters); experiment: Induction of AChR clusters in myotube cells by the MuSK7 homodimer, with or without AST-487; assay type: cell-based, mouse; settings: in the presence of AST-487
From the text: (§1) The mouse myoblast-derived cell line C2C12 (CRL-1772) was purchased from the American Type Culture Collection and used. For subculture, Dulbecco's Modified Eagle Medium (DMEM, high glucose, GlutaMAX supplement, pyruvate; GIBCO) supplemented with 20% fetal bovine serum (FBS; GIBCO) was used. For passage, after the culture medium was removed by suction, adherent cells were washed with phosphate buffered saline (PBS(-)), and HBSS (GIBCO) containing no Mg^2+ and Ca^2+ and containing 0.25% trypsin and 1 mM ethylenediaminetetraacetic acid was added, and the mixture was reacted in a CO2 incubator (37°C, 5% CO2) for 5 minutes. […]
A differentiation medium supplemented with an appropriate amount of the homodimer of the cyclic peptide MuSK7 (MuSK7 PEG11 dimer) was prepared in advance in a 96-well plate (Nunclon Δ Surface, 167008, Nunc), and used at 100 µL/well at the time of the second medium change in the process of inducing differentiation into myotubes. […] After washing the cells several times with 1% BSA-PBS(-), 100 µL of PBS(-) was added to each well, and fluorescence observation was performed using a fluorescence imaging device. […] During fluorescence image observation, a 10× objective lens was used, and tiff images of an area equivalent to 1 mm^2 were obtained. […] The average number of AChR clusters counted from the three tiff images derived from the same well was calculated and drawn on a graph. […]

[2] = system: C2C12 myotubes (Agrin-induced AChR clusters); experiment: Agrin-induced AChR clusters in myotubes with tyrosine kinase inhibitors; assay type: cell-based, mouse; settings: 10 pM recombinant rat agrin, inhibitor added simultaneously, 20 hours; low concentration range of 1 nM
From the text: The mouse myoblast-derived cell line C2C12 (CRL-1772) was purchased from the American Type Culture Collection and used. For subculture, Dulbecco's Modified Eagle Medium (DMEM, high glucose, GlutaMAX supplement, pyruvate; GIBCO) supplemented with 20% fetal bovine serum (FBS; GIBCO) was used. For passage, after the culture medium was removed by suction, adherent cells were washed with phosphate buffered saline (PBS(-)), and HBSS (GIBCO) containing no Mg^2+ and Ca^2+ and containing 0.25% trypsin and 1 mM ethylenediaminetetraacetic acid was added, and the mixture was reacted in a CO2 incubator (37°C, 5% CO2) for 5 minutes. The detached cells were collected and then centrifuged at 1000 rpm at 4°C for 5 minutes (Sorvall X4R Pro, Thermo Fisher Scientific Inc.). After the supernatant was removed by suction, the cells were suspended in fresh culture medium, and 100 µL was seeded into a 96-well plate (BioCoat Collagen I 96-well Black/Clear plate, Corning Inc.) and cultured in a CO2 incubator (37°C, 5% CO2) until reaching confluence, typically within 72 hours. Subsequently, the culture medium was removed and the first medium change was performed with DMEM containing 2% horse serum (GIBCO) for induction of myotube cell differentiation.
A differentiation medium supplemented with an appropriate amount of the homodimer of the cyclic peptide MuSK7 (MuSK7 PEG11 dimer) was prepared in advance in a 96-well plate (Nunclon Δ Surface, 167008, Nunc), and used at 100 µL/well at the time of the second medium change in the process of inducing differentiation into myotubes. 20 hours after addition of the homodimer of the cyclic peptide MuSK7, the medium was removed, the cells were washed with PBS(-), and then fixed at room temperature for 15 minutes with PBS(-) containing 4% formaldehyde. After washing several times with 1% BSA-PBS(-), fluorescently labeled α-bungarotoxin (α-Btx, Alexa Fluor 488 conjugate; Invitrogen) was added to 1% BSA-PBS(-) at a final concentration of 100 nM, and after adding this to the wells, the mixture was allowed to stand at room temperature under a light-shielded condition for 30 minutes. After washing the cells several times with 1% BSA-PBS(-), 100 µL of PBS(-) was added to each well, and fluorescence observation was performed using a fluorescence imaging device. For observation of fluorescently labeled AChR clusters, an EVOS M7000 imaging system (Thermo Fisher Scientific Inc.) was used. During fluorescence image observation, a 10× objective lens was used, and tiff images of an area equivalent to 1 mm^2 were obtained. […] The average number of AChR clusters counted from the three tiff images derived from the same well was calculated and drawn on a graph.
MuSK inhibitor candidates were searched in the KinaseNET database (http://www.kinasenet.ca/) published as an open resource by Kinexus Bioinformatics Corporation (Canada), and three tyrosine kinase inhibitors (AST-487, Foretinib, and Sorafenib) were identified. Next, groups were prepared in which 10 pM recombinant rat agrin protein (550-AG, R&D Systems) derived from C2C12 myotubes was added alone, or in which each tyrosine kinase inhibitor (3 nM) was added simultaneously, and detection and observation of Agrin-induced AChR clusters were performed 20 hours after compound addition (five types, Crizotinib, Linifanib, AST-1306, Dovitinib, and BMS-754807, were used as non-MuSK inhibitory tyrosine kinase inhibitors).

[3] = system: mouse myoblast-derived cell line C2C12; experiment: Induction of AChR clusters in myotube cells and quantitative analysis (fluorescent α-bungarotoxin); assay type: cell-based; settings: 20 hours after addition
From the text: as §1
After washing several times with 1% BSA-PBS(-), fluorescently labeled α-bungarotoxin (α-Btx, Alexa Fluor 488 conjugate; Invitrogen) was added to 1% BSA-PBS(-) at a final concentration of 100 nM, and after adding this to the wells, the mixture was allowed to stand at room temperature under a light-shielded condition for 30 minutes. After washing the cells several times with 1% BSA-PBS(-), 100 µL of PBS(-) was added to each well, and fluorescence observation was performed using a fluorescence imaging device. […] During fluorescence image observation, a 10× objective lens was used, and tiff images of an area equivalent to 1 mm^2 were obtained. […] The average number of AChR clusters counted from the three tiff images derived from the same well was calculated and drawn on a graph.

[4] = target: T1, human MuSK (Homo sapiens, UniProt O15146); experiment: SPR binding activity test to human MuSK (Biacore); settings: human MuSK, peptide homodimers
T1 construct: DNA corresponding to the extracellular portion (amino acids 1-493) was amplified by a PCR method; made in house; host or cells: Expi293F cells
T1 sequence (O15146 24-493): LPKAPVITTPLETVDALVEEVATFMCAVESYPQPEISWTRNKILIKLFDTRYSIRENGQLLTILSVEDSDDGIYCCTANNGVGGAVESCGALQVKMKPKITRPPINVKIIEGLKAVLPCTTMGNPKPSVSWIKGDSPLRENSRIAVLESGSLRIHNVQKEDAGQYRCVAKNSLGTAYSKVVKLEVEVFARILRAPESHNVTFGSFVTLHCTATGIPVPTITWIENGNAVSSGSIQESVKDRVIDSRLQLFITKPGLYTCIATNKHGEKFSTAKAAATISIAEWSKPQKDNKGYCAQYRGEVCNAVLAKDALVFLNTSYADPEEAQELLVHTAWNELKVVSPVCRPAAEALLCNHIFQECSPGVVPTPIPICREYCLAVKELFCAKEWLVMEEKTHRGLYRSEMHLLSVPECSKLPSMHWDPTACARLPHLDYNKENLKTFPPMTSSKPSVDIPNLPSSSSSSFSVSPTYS
Description: The human MuSK protein (extracellular portion) was prepared as a recombinant protein as follows. Using a Flexi clone (FXC31275, Promega Corporation) encoding Human MuSK isoform 1 precursor (NCBI Reference Sequence: NP_005583.1) as a template, DNA corresponding to the extracellular portion (amino acids 1-493) was amplified by a PCR method. XhoI and EcoRI restriction enzyme recognition sequences were added to both the 5' and 3' ends of the amplified DNA sequence, and these were used for insertion into the multiple cloning site of a pCAG-Neo hIgG1-Fc plasmid (Fujifilm Wako Pure Chemical Corporation). This plasmid (pCAG-Neo hMuSK-Fc) enables expression of a chimeric protein of the secretory human MuSK extracellular portion and human IgG1 Fc (hMuSK-Fc; molecular weight of approximately 200 kDa) in animal cells. In practice, ExpiFectamine 293 reagent (Invitrogen) was used to transfect the pCAG-Neo hMuSK-Fc plasmid into Expi293F cells (Invitrogen), and shaking culture was carried out (for 6 days) in an incubator containing 8% CO2. Next, the culture supernatant was collected, centrifuged, and sterilized by filtration through a 0.22 µm filter. The obtained culture supernatant was subjected to Protein G purification, and finally, a purified hMuSK-Fc sample with 99.96% purity (AKTA-FPLC analysis) was obtained.
The strength of binding between MuSK and the cyclic peptides was evaluated by quantitatively measuring the binding kinetics (binding affinity (dissociation constant) KD) of the cyclic peptides to MuSK immobilized on a sensor chip via an Fc tag, using surface plasmon resonance (SPR).
According to the standard immobilization protocol provided by the manufacturer, Fc-tagged human/mouse/rat MuSK was immobilized on a Protein G chip or a Protein A chip (Cytiva). A running buffer for the monomer/dimer peptides contained 0.010 M phosphate, 0.14 M NaCl, 0.0027 M KCl, 0.05% (v/v) Tween 20, and 0.1% (v/v) DMSO. A running buffer for the monomer/dimer U-bodies contained 0.010 M phosphate, 0.14 M NaCl, 0.0027 M KCl, and 0.05% (v/v) Tween 20. A series of concentrations of each monomer peptide, dimer peptide, monomer U-body, and dimer U-body was injected as analytes. A 1:1 binding fitting analysis was applied using Biacore evaluation software, and ka, kd, and KD values were determined.
Fc-tagged human MuSK was prepared according to the procedure described in Example 1(1). In addition, Fc-tagged mouse MuSK was used by expressing a nucleotide sequence encoding the Fc-tagged mouse MuSK extracellular domain (SEQ ID NO: 34). In addition, Fc-tagged rat MuSK was used as a chimeric protein of rat MuSK and an Fc protein, namely, Recombinant Rat MuSK Fc Chimera Protein (catalog number: 9847-MK-050, R&D Systems).
The affinity of the U-bodies and their complexes obtained as described above for MuSK of human, rat, and mouse was evaluated (binding activity test). The test was carried out according to the procedure described in Example 1(3). However, for the complexes of U-bodies, surface plasmon resonance (SPR) analysis was carried out using a Biacore 8K (Cytiva).

SMILES: CCN1CCN(Cc2ccc(NC(=O)Nc3ccc(Oc4cc(NC)ncn4)cc3)cc2C(F)(F)F)CC1 [AST-487]
- AChR cluster formation by the homodimer of the cyclic peptide MuSK7 [1]: no AChR clusters were detected
- Agrin-induced AChR cluster formation [2]: no AChR cluster formation was observed

SMILES: CC(C)C[C@@H]1NC(=O)[C@H](CO)NC(=O)[C@H](C)NC(=O)[C@H](C(C)C)NC(=O)[C@H](C(C)C)NC(=O)[C@H](CC(N)=O)NC(=O)[C@H]([C@@H](C)O)NC(=O)[C@H](Cc2c[nH]cn2)NC(=O)[C@H](Cc2ccc(O)cc2)NC(=O)[C@H](CO)NC(=O)[C@@H]2CCCN2C(=O)[C@@H](Cc2ccc(O)cc2)NC(=O)CSC[C@@H](C(=O)N[C@@H](CSC2CC(=O)N(CCC(=O)NCCOCCOCCOCCOCCOCCOCCOCCOCCOCCOCCOCCNC(=O)CCN3C(=O)CC(SC[C@H](NC(=O)[C@@H]4CSCC(=O)N[C@H](Cc5ccc(O)cc5)C(=O)N5CCC[C@H]5C(=O)N[C@@H](CO)C(=O)N[C@@H](Cc5ccc(O)cc5)C(=O)N[C@@H](Cc5c[nH]cn5)C(=O)N[C@@H]([C@@H](C)O)C(=O)N[C@@H](CC(N)=O)C(=O)N[C@@H](C(C)C)C(=O)N[C@@H](C(C)C)C(=O)N[C@@H](C)C(=O)N[C@@H](CO)C(=O)N[C@@H](CC(C)C)C(=O)N[C@@H](CCCCN)C(=O)N[C@@H](CCCNC(=N)N)C(=O)N4)C(N)=O)C3=O)C2=O)C(N)=O)NC(=O)[C@H](CCCNC(=N)N)NC(=O)[C@H](CCCCN)NC1=O (stereo partly shown) [MuSK7 PEG11 dimer] (I: {CH2CO}-[dY]PSYHTNVVASLKRCC-NH2 / II: {CH2CO}-[dY]PSYHTNVVASLKRCC-NH2; linker I:16-II:16 via X1; thioether I:N-I:15, II:N-II:15)
- number of AChR clusters ([3]; compound concentration exceeded 1 µM): conversely tended to decrease
- number of AChR clusters ([3]; concentration range from the pM order to 1 µM): increased in a dose-dependent manner
- koff [4]: 0.00051 s⁻¹
- kon [4]: 390000 M⁻¹ s⁻¹
- Kd ([4]; read-out: Kd): 1.3 nM
